# Where “and” joins values, the source holds several entries; their conditions need not be identical. Equal entries are not always repeated. Calls of active or inactive are those of the source.
# What was measured:
# Cytochrome P450 1A2 = target: T1, Cytochrome P450 1A2 (Homo sapiens, UniProt P05177);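 note: PubChem cytochrome P450 panel assay, CYP1A2 panel member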
# T1 sequence (P05177 whole entry): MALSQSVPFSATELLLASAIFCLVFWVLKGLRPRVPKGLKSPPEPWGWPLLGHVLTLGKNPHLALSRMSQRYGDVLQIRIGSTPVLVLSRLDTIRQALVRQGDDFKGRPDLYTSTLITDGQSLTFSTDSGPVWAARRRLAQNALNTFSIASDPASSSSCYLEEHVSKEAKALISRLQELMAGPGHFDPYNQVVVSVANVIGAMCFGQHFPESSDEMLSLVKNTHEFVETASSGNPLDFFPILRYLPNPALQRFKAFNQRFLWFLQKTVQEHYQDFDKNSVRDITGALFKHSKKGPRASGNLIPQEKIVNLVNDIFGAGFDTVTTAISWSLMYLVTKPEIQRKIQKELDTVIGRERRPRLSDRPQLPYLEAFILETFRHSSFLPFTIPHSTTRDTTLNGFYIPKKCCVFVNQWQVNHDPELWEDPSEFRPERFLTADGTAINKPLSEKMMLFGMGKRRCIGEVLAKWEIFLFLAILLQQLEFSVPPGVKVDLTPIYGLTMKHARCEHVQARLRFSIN
# [1] = target: T2, Heat shock factor protein 1 (Mus musculus, UniProt P38532); experiment: inhibition of MG132-induced HSE-luciferase signal, confirmation, cell-based, NIH3T3, luminescence, dose retest (AID 2382); format: functional;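 note: NIH3T3 fibroblasts with HSF1-driven luciferase reporter stressed by proteasome inhibitor MG132; luminescence from HSF1-driven luciferase expression after 8 hours of MG132 stress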
# T2 sequence (P38532 whole entry): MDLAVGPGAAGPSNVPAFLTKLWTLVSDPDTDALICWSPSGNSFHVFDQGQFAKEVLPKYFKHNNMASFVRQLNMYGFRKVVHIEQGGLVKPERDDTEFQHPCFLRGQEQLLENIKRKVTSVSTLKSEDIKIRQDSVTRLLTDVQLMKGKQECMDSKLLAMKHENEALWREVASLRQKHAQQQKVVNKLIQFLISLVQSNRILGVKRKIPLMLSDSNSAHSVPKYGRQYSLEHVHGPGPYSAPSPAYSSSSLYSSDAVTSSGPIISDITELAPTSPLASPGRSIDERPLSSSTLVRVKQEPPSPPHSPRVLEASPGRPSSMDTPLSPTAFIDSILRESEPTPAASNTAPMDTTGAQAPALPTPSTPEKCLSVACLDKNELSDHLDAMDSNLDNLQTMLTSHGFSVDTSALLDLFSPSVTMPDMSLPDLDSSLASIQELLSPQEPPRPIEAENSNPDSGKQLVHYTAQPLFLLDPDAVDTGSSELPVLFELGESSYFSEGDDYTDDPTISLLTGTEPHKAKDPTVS
# [2] = inhibitors of intracellular T. cruzi replication, confirmation, NIH3T3 host cells, beta-gal luminescence (AID 2044); format: functional, cell-based;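 note: intracellular parasites grown in NIH/3T3 mouse fibroblasts as host cells; luminescent beta-galactosidase reporter signal from transgenic T. cruzi replicating inside host cells; inhibitors lower the luminescence signal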
# [3] = cytotoxicity toward NIH3T3 fibroblasts, dose response, counter-screen, cell-based, ATP luminescence, mouse fibroblasts (AID 2010); format: functional;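 note: cells exposed to compound for about 90 hours before reading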
# Cytochrome P450 2C19 = Cytochrome P450 2C19 (Homo sapiens, UniProt P33261); experiment: Cytochrome panel assay with activity outcomes. Panel member name: p450-cyp2c19 Compounds with AC50 equal or less than 10 uM are considered active; format: functional
# INS1 = experiment: beta cell apoptosis inhibitors, cytokine rescue, dose response, luminescence, retest (AID 449756); format: functional, cell-based; settings: Rattus norvegicus;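 note: cell death triggered by IL-1 beta plus TNF-alpha plus IFN-gamma mixture; protective hits raise ATP signal compared with cytokine alone wells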
# [4] = system: Streptococcus sp. 'group A'; experiment: growth inhibition of control SK(-) GAS strain, dose response, counter-screen for streptokinase expression inhibitor project, luminescence, kanamycin, BacTiterGlo, confirmation (AID 1900); format: functional, organism-based
# Streptococcus = experiment: Group A Streptococcus viability loss, dose response, counter-screen for streptokinase expression inhibitor project, luminescence, BacTiterGlo (AID 1915); format: functional, organism-based;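 note: potency for reduction of bacterial viability or growth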
# [5] = inhibitors of firefly luciferase expression or activity, dose response, H4 neuroglioma cells, luminescence (AID 1990); format: functional, cell-based
# [6] = Luminescence Cell-Based Dose Response HTS to Identify Inhibitors of 5'UTR Stem-Loop Driven Prion Protein mRNA Translation in H4 Neuroglioblastoma Cells. [Related pubchem assays: 1827 (Project Summary), 1813 (Primary HTS)]; format: functional
# [7] = inhibitors of SNCA 5'UTR-driven reporter translation, confirmation, H4 neuroglioma cells, luminescence (AID 1988); format: functional, cell-based
# Cytochrome P450 2C19, sequence (P33261 whole entry): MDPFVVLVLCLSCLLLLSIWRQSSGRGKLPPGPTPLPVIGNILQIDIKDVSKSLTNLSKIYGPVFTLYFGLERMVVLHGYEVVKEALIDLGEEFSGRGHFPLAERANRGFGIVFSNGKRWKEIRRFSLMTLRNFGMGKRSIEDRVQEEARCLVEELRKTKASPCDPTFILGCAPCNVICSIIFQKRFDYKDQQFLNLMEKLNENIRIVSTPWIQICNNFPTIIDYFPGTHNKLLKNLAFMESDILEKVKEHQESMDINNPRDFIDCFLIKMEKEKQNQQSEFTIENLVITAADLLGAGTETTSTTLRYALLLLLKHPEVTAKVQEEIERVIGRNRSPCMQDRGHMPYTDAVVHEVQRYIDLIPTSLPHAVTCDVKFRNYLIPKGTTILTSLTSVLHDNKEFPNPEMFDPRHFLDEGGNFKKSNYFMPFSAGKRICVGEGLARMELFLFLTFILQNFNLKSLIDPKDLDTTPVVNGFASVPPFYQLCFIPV
smiles,measurement,setting,value
N=C(N)SCCSC(=N)N,AC50,Cytochrome P450 1A2,2 µM (inconclusive)
Cc1ccc(C(=N)NOC(=O)CN(C)S(=O)(=O)c2ccc(C)cc2)cc1,EC50,[1],> 195 µM (not active)
O=S(=O)(c1ccc(Cl)cc1)N1CCCCC1c1cccnc1 (configuration not stated),EC50,[2],0.838 µM (active)
same,EC50,[3],> 60 µM (not active)
CN1CCN(C(=O)/C(=C\c2cccs2)NC(=O)c2ccco2)CC1,EC50,[1],> 195 µM (not active)
CCN(c1ccccc1)c1cc(NC)[n+](C)c(C)n1,AC50,Cytochrome P450 1A2,31.6 µM (inconclusive)
CC(C)(O)C#Cc1ccc(CN2CCCC(CO)(Cc3cccc(Cl)c3)C2)cc1 (configuration not stated),EC50,[2],0.455 µM (active)
same,EC50,[3],> 60 µM (not active)
C[C@@H](C(=O)NCCc1c[nH]c2ccccc12)[C@@H]1C[C@@]1(C)[C@@H](NC(=O)OCc1ccccc1)c1ccccc1,AC50,Cytochrome P450 1A2,12.6 µM (inconclusive)
Cc1ccc(-n2cc(CN3CCC(O)(c4ccccn4)CC3)c(-c3ccc(F)cc3)n2)cc1,EC50,[2],3.61 µM (active)
same,EC50,[3],9.48 µM (active)
CC(C)CCNC(=O)C1CCCN1C(=O)NC1CCCCC1 (configuration not stated),EC50,[1],> 195 µM (not active)
COc1cccc(C2C(C(=O)c3cc4ccccc4o3)=C(O)C(=O)N2c2cc(C)on2)c1 (configuration not stated),EC50,[1],> 195 µM (not active)
O=C(Cn1cnc([N+](=O)[O-])c1)Nc1cc(Oc2ccc(Cl)cc2Cl)cc([N+](=O)[O-])c1,EC50,[2],1.11 µM (active)
same,EC50,[3],> 60 µM (not active)
COC(=O)[C@@H]1C[C@H]1[C@@H](NC(=O)c1cc(C)nn1C)c1ccccc1,AC50,Cytochrome P450 2C19; read-out: AC50,39.8 µM (inconclusive)
O=C(Nc1cccnc1)c1cccnc1,AC50,INS1,7.3 µM (active)
O=C(Nc1ccccc1)c1ccc(Nc2c([N+](=O)[O-])cc([N+](=O)[O-])c3ccccc23)cc1,EC50,[2],0.622 µM (active)
same,EC50,[3],> 60 µM (not active)
Clc1ccccc1CN(Cc1ccccc1)c1[nH]cnc2ncnc1-2,EC50,[4],5.85 µM (active)
same,EC50,Streptococcus,> 150 µM (not active)
COc1cc(C(=O)Nc2ccc(-c3nc4cc(C)ccc4o3)c(O)c2)cc(OC)c1OC,EC50,[4],2.35 µM (active)
same,EC50,Streptococcus,1.85 µM (active)
Cc1ccc(Nc2nc(-c3cccnc3)cs2)cc1Cl,EC50,[2],2.13 µM (active)
same,EC50,[3],> 60 µM (not active)
COC(=O)c1ccc(NC(=S)N(Cc2cccnc2)Cc2ccco2)cc1,EC50,[2],0.534 µM (active)
same,EC50,[3],> 30 µM (not active)
O=C(O)c1ccc(N2C(=O)CC(N3CCN(c4cccc(C(F)(F)F)c4)CC3)C2=O)cc1 (configuration not stated),EC50,[1],> 195 µM (not active)
COc1ccc(CN(C)C(=O)c2cc(S(=O)(=O)N3CCOCC3)ccc2N2CCCC2)cc1,EC50,[1],> 195 µM (not active)
CCOc1ccc(C(=O)C[n+]2cccc3cc(C)ccc32)cc1,EC50,[2],4.12 µM (active)
same,EC50,[3],> 30 µM (not active)
O=C(Nc1cc2ccccc2oc1=O)C1CCCCC1,AC50,Cytochrome P450 2C19; read-out: AC50,28.2 µM (inconclusive)
same,AC50,Cytochrome P450 1A2,2.51 µM (inconclusive)
Cc1cccc(NC(=O)Cn2c(=O)n(Cc3ccco3)c(=N)c3c4c(sc32)COC(C)(C)C4)c1,EC50,[1],> 195 µM (not active)
COC(=O)[C@@]1(Cc2ccc(OC)cc2)[C@H]2c3cc(C(=O)N4CCCC4)n(CCc4ccccn4)c3C[C@H]2CN1C(=O)c1ccccc1,AC50,Cytochrome P450 2C19; read-out: AC50,25.1 µM (inconclusive)
C[C@@H](C(=O)NCc1ccccn1)[C@H]1C[C@]1(C)[C@H](NC(=O)OCc1ccccc1)c1ccccc1,AC50,Cytochrome P450 1A2,25.1 µM (inconclusive)
Cc1ccccc1Cn1ccc(NC(=O)c2cnn3c(C(F)(F)F)cc(-c4ccco4)nc23)n1,EC50,[1],19.1 µM (active)
COc1cccc(CNc2nc(SC)ncc2CO)c1,EC50,[5],13.5 µM (active)
same,EC50,[6],27.1 µM (active)
same,EC50,[7],> 120 µM (not active)
CCc1ccc(CN2CCCC(C(=O)c3sccc3C)C2)o1 (configuration not stated),EC50,[2],0.159 µM (active)
same,EC50,[3],16.9 µM (active)
Cc1cc(Cl)ccc1OCCCC(=O)N1CCOCC1,EC50,[1],> 195 µM (not active)
O=C(Nn1c(-c2ccncc2)nc2ccccc2c1=O)c1ccc(Br)cc1,EC50,[2],0.75 µM (active)
same,EC50,[3],> 60 µM (not active)
O=C1N=C2SCCN2/C1=C\c1c(Cl)cccc1Cl,AC50,Cytochrome P450 2C19; read-out: AC50,28.2 µM (inconclusive)
CCNC(=O)CNC(=O)c1nn(Cc2ccccc2)c(=O)c2ccccc12,EC50,[1],> 195 µM (not active)
COc1cccc(/C=C/C(=O)OCC(=O)Nc2nnc(-c3ccccc3)o2)c1,EC50,[4],6.11 µM (active)
same,EC50,Streptococcus,11.1 µM (active)
Oc1[nH]c2ccc(Br)cc2c1N=NC(S)=Nc1ccc(F)cc1,EC50,[5],15.5 µM (inconclusive)
same,EC50,[4],0.074 µM (active)
same,EC50,[6],> 120 µM (not active)
same,EC50,[7],9.77 µM (active)
same,EC50,[2],1.63 µM (active)
same,EC50,[3],7.03 µM (active)
same,EC50,Streptococcus,1.39 µM (active)
COc1cccc(NC(=O)c2oc3ccccc3c2NC(=O)c2ccc3c(c2)OCO3)c1,AC50,Cytochrome P450 1A2,6.31 µM (inconclusive)
COc1ccc(CNC(=O)c2cnc3scc(C)n3c2=O)cc1,EC50,[1],> 195 µM (not active)
O=C1SCC(c2ccccc2)=NN1Cc1ccccc1,EC50,[1],> 195 µM (not active)
Cc1ccc(OCCCCNC2CCCCC2)c(C)c1,EC50,[2],1.62 µM (active)
same,EC50,[3],> 60 µM (not active)
CCOC(=O)c1c(-c2cccs2)csc1NC(=O)CN1CCOCC1,EC50,[5],20.9 µM (active)
same,EC50,[6],80.6 µM (active)
same,EC50,[7],> 120 µM (not active)
CCc1ccc(C2=NN(CCC(=O)NC(C)CCc3ccccc3)C(=O)CC2)cc1 (configuration not stated),EC50,[5],> 120 µM (not active)
same,EC50,[6],23.8 µM (active)
same,EC50,[7],119 µM (active)
OC(CNCCc1ccccc1)COc1ccc(OCC(O)CNCCc2ccccc2)cc1 (configuration not stated),EC50,[5],9.08 µM (active)
same,EC50,[6],> 120 µM (not active)
same,EC50,[7],8.27 µM (active)
CCOc1ccc(-n2c(=O)[nH]cc(C(=O)N3CCCc4ccccc43)c2=O)cc1,AC50,Cytochrome P450 2C19; read-out: AC50,5.01 µM (inconclusive)
CCOC(=O)c1ccc(Cl)c(NC(=O)c2ccc(-c3ccccc3)cc2)c1,AC50,Cytochrome P450 1A2,28.2 µM (inconclusive)
COc1cccc(-c2nc(-c3ccc(NC(=O)c4cccnc4)cc3)no2)c1,AC50,INS1,1.33 µM (active)
Cn1nnnc1SCc1ccccc1[N+](=O)[O-],AC50,Cytochrome P450 1A2,15.8 µM (inconclusive)
COc1ccc(NC(=O)N2CC3(CCN(C(=O)c4c(C)noc4C)CC3)C2)cc1,AC50,Cytochrome P450 2C19; read-out: AC50,39.8 µM (inconclusive)
Fc1cc(F)c2nc(Nc3nc4c(F)cccc4s3)sc2c1,AC50,INS1,4.34 µM (active)
COc1ccc(-c2nc(CN3CCCCC3c3cccnc3)c(C)o2)c(F)c1 (configuration not stated),EC50,[2],1.45 µM (active)
same,EC50,[3],> 60 µM (inconclusive)
Cc1cc2c(cc1C)NC(c1nc3ccccc3[nH]1)C1=C(O)CC(C)(C)CC1=N2 (configuration not stated),AC50,Cytochrome P450 2C19; read-out: AC50,1.78 µM (inconclusive)
same,AC50,Cytochrome P450 1A2,25.1 µM (inconclusive)
Cc1cc(=O)[nH]c2ccccc12,AC50,Cytochrome P450 2C19; read-out: AC50,20 µM (inconclusive)
CNc1cc(NS(=O)(=O)c2ccc(N)cc2)nc(NC)n1,AC50,Cytochrome P450 2C19,inconclusive
CC1(C)Oc2ccc(C#N)cc2[C@H](N2CCCC2=O)[C@H]1O [(-)-CROMAKALIM],AC50,Cytochrome P450 1A2,10 µM (inconclusive) and 20 µM (inconclusive)
COC(=O)Nc1nc2cc(C(=O)c3ccc(F)cc3)ccc2[nH]1 [FLUBENDAZOLE],EC50,[5],0.323 µM (active)
same,EC50,[6],0.225 µM (active)
same,EC50,[7],< 0.1 µM (active)
CN1CCC(=C2c3ccccc3CC(=O)c3sccc32)CC1 [KETOTIFEN],AC50,Cytochrome P450 2C19,inconclusive
